Read-outs that look alike come from different tables or passages of the source.
How the values were obtained:
[1] = from C=CCN1CCN(c2cc(F)ncc2NC(=O)c2ccnc(NCC(C)(O)CC=C)n2)CC1; rcm bond; 18-membered ring; Zhan 1B; ClCH2CH2Cl; 4.5 mM; 70.0 °C; 1.5 h
[2] = test system: pTau; experiment: pTau assay; format: cell-based
[3] = rcm bond, Zhan 1B, 70.0 °C, 1.5 h
[4] = target: GSK3β (Homo sapiens, UniProt P49841); experiment: GSK3β kinase assay (Caliper LabChip3000, fluoresceinated peptide substrate); format: biochemical; conditions: first value of cell; 250 pM enzyme, 20 uM ATP, 20 hours room temperature; read-out: GSK3β/α (nM): GSK3β IC50
Experimental: (§1) The kinase assay was performed in V-bottom 384-well plates. The final assay volume was 30 μl prepared from 15 μl additions of enzyme, substrates (fluoresceinated peptide FL-KRREILSRRP[ps]ERYR-NH2 and ATP) and test compounds in assay buffer (100 mM HEPES pH 7.4, 10 mM MgCl2, 25 mM Beta-Glycerolphosphate, 0.015% Brij35 and 0.25 mM DTT). The reaction was incubated at room temperature for 20 hours and terminated by adding 45 μl of 35 mM EDTA to each sample. The reaction mixture was analyzed on the Caliper LabChip3000 (Caliper, Hopkinton, Mass.) by electrophoretic separation of the unphosphorylated substrate and phosphorylated product. Inhibition data were calculated by comparison of the no enzyme control reactions for 100% inhibition and vehicle-only reactions for 0% inhibition. The final concentration of reagents in the assay were 250 pM GSK3α or GSK3β, 20 uM ATP, 1.5 uM FL-KRREILSRRP[ps]ERYR-NH2, and 1.6% DMSO. Dose response curves were generated to determine the concentration required to inhibit 50% of the kinase activity (IC50). Compounds were dissolved at 10 mM in dimethylsulfoxide (DMSO) and evaluated at eleven concentrations. IC50 values were derived by non-linear regression analysis.

[5] = target: GSK3α (Homo sapiens, UniProt P49840); experiment: GSK3α kinase assay (Caliper LabChip3000, fluoresceinated peptide substrate); format: biochemical; conditions: second value of cell; 250 pM enzyme, 20 uM ATP, 20 hours room temperature; read-out: GSK3β/α (nM): GSK3α IC50
Experimental: as §1

GSK3α, sequence (P49840 whole entry, species assumed): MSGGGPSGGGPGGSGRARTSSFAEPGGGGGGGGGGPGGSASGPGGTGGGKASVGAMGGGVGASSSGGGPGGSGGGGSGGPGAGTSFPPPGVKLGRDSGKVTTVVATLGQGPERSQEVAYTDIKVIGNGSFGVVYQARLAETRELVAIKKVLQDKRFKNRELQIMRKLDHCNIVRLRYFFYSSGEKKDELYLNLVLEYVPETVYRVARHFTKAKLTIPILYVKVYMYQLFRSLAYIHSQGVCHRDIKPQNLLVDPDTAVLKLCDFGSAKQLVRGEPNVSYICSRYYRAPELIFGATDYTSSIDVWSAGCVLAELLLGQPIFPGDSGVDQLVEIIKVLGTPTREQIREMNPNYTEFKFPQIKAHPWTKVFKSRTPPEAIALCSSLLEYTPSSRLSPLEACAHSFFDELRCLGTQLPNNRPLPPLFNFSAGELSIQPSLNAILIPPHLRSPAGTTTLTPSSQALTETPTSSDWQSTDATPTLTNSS
GSK3β, sequence (P49841 whole entry, species assumed): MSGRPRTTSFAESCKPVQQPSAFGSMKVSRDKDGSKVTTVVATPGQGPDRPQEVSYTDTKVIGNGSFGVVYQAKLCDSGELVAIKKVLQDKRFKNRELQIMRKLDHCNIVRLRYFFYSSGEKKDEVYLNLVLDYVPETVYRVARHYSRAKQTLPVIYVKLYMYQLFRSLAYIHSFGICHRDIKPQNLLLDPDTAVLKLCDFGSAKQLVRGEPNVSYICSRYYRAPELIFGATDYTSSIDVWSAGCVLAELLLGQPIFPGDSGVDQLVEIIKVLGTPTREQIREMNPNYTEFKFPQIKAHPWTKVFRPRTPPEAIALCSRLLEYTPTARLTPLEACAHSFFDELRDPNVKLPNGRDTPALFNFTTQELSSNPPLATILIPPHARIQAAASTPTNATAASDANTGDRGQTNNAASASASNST

Structure (SMILES)	ring closure, yield after HPLC [1]	IC50 [2]	ring closure, isolated yield ([3]; from C=CCCOc1ccncc1NC(=O)c1ccnc(NCC(C)(O)CC=C)n1, 16-membered ring, ClCH2CH2Cl, 4.33 mM)	IC50 [4]	IC50 [5]	ring closure, isolated yield ([3]; from C=CCC(O)C1(Nc2nccc(C(=O)Nc3cnc(F)cc3N3CCN(CC=C)CC3)n2)CC1, 18-membered ring)
CC1(O)CC=CCN2CCN(CC2)c2cc(F)ncc2NC(=O)c2ccnc(n2)NC1 (stereo not drawn)	37%	–	–	–	–	–
CC1(O)CC=CCCOc2ccncc2NC(=O)c2ccnc(n2)NC1 (mixture of isomers) [Example 41, (E)-11-Hydroxy-11-methyl-5-oxa-3,13-diaza-1(4,2)-pyrimidina-4(3,4)-pyridinacyclotridecaphan-8-en-2-one]	–	0.266 µM	39%	2.7 nM	4.7 nM	–
O=C1Nc2cnc(F)cc2N2CCN(CC=CCC(O)C3(CC3)Nc3nccc1n3)CC2 (mixture of isomers) [Example 34, (E)-6′-fluoro-8′-hydroxyspiro[cyclopropane-1,7′-3,6-diaza-5(4,2)-pyrimidina-1(1,4)-piperazina-2(4,3)-pyridinacyclododecaphanen]-10′-en-4′-one]	–	9.97 µM	–	1270 nM	2000 nM	54%
